# Measured values reported in US9993494B2, “Compositions and methods for treating fibrotic disease” (eFFECTOR Therapeutics, Inc., priority 2014, dated 2018).
# Test system: normal human lung fibroblasts
# Experiment: Ribosomal profiling: translational efficiency in TGFβ-treated fibroblasts
# Format: cell-based
# Description: Ribosomal profiling allows for measurement of changes in transcription and translation on a genome-wide basis accompanying TGFβ-dependent transformation of fibroblasts to myofibroblasts. Ribosomal profiles of the TGFβ-treated fibroblasts from Example 1 (about 6×10^6 cells/10 cm plate) were prepared and analyzed for changes in translational efficiencies with respect to potential disease-associated cellular changes accompanying this TGFβ-induced transformation.
# Briefly, cells were washed with cold PBS supplemented with cycloheximide and lysed with 1× mammalian cell lysis buffer for 10 minutes on ice. Lysates were clarified by centrifugation for 10 minutes at 14,000 rpm and supernatants were collected. Cell lysates were processed to generate ribosomal protected fragments and total mRNA according to the instructions included with the ARTseq Ribosome Profiling Kit (Illumina, San Diego, Calif.). Sequencing of total RNA (RNA) and of ribosome-protected fragments of RNA (RPF) was carried out using RNA-Seq methodology according to the manufacturer's instructions (Illumina). To analyze the ribosomal profiles, RNA-Seq reads were processed with tools from the FASTX-Toolkit (fastq_quality_trimmer, fastx_clipper and fastx_trimmer). Unprocessed and processed reads were evaluated for a variety of quality measures using FastQC, and processed reads were mapped to the human genome using TopHat (see, e.g., Trapnell et al., Bioinformatics 25:1105, 2009). Gene-by-gene assessment of the number of fragments strictly and uniquely mapping to the coding region of each gene was conducted using HTSeq-count, a component of the HTSeq package. […] Genes with low counts in either RPF or RNA were excluded from differential analyses. Pathway and network analyses of differential data were conducted using Ingenuity Pathway Analysis (IPA).
substance,measurement,setting,value
TGFβ,Log2 TE KIAA0408,"ENSG00000189367, 5 replicates",−1.283
same,Log2 TE ZBTB44,"ENSG00000196323, 5 replicates",−1.222
same,Log2 TE NACA,"ENSG00000196531, 5 replicates",1.083
same,change in translational profile of NACA caused by TGFβ,"ENSG00000196531, Control vs. TGFβ",E (E = <1.5 to 2.5)
same,Log2 TE ADH1B,"ENSG00000196616, 5 replicates",−2.795
same,Log2 TE TOMM7,"ENSG00000196683, 5 replicates",1.126
same,change in translational profile of LAMB3 caused by TGFβ,"ENSG00000196878, Control vs. TGFβ",D (D = <1.0 to 1.5)
same,Log2 TE PCBP2,"ENSG00000197111, 5 replicates",1.293
same,change in translational profile of PCBP2 caused by TGFβ,"ENSG00000197111, Control vs. TGFβ",E (E = <1.5 to 2.5)
same,Log2 TE MAP3K5,"ENSG00000197442, 5 replicates",−2.0153
same,change in translational profile of MAP3K5 caused by TGFβ,"ENSG00000197442, Control vs. TGFβ",B (B = <−1.5 to −2.5)
same,Log2 TE RPS26,"ENSG00000197728, 5 replicates",1.09
same,Log2 TE RPL37A,"ENSG00000197756, 5 replicates",2.029
same,change in translational profile of RPL37A caused by TGFβ,"ENSG00000197756, Control vs. TGFβ",E (E = <1.5 to 2.5)
same,Log2 TE RPL12,"ENSG00000197958, 5 replicates",1.878
same,change in translational profile of RPL12 caused by TGFβ,"ENSG00000197958, Control vs. TGFβ",E (E = <1.5 to 2.5)
same,Log2 TE DNM3,"ENSG00000197959, 5 replicates",−1.161
same,Log2 TE RPS4X,"ENSG00000198034, 5 replicates",1.534
same,Log2 TE LPAR1,"ENSG00000198121, 5 replicates",−1.448
same,change in translational profile of LPAR1 caused by TGFβ,"ENSG00000198121, Control vs. TGFβ",C (C = <−1.0 to −1.5)
same,Log2 TE ZNF607,"ENSG00000198182, 5 replicates",−1.108
same,Log2 TE RPL23A,"ENSG00000198242, 5 replicates",1.395
same,change in translational profile of RPL23A caused by TGFβ,"ENSG00000198242, Control vs. TGFβ",E (E = <1.5 to 2.5)
same,Log2 TE TPM2,"ENSG00000198467, 5 replicates",1.077
same,change in translational profile of PLN caused by TGFβ,"ENSG00000198523, Control vs. TGFβ",F (F = >2.5)
same,Log2 TE RPL10A,"ENSG00000198755, 5 replicates",1.51
same,change in translational profile of RPL10A caused by TGFβ,"ENSG00000198755, Control vs. TGFβ",E (E = <1.5 to 2.5)
same,Log2 TE CES1,"ENSG00000198848, 5 replicates",1.084
same,change in translational profile of CES1 caused by TGFβ,"ENSG00000198848, Control vs. TGFβ",E (E = <1.5 to 2.5)
same,Log2 TE RPL39,"ENSG00000198918, 5 replicates",1.536
same,change in translational profile of RPL39 caused by TGFβ,"ENSG00000198918, Control vs. TGFβ",E (E = <1.5 to 2.5)
same,Log2 TE GPRASP1,"ENSG00000198932, 5 replicates",−1.239
same,Log2 TE RORB,"ENSG00000198963, 5 replicates",−1.766
same,Log2 TE CARD16,"ENSG00000204397, 5 replicates",−1.076
same,change in translational profile of CARD16 caused by TGFβ,"ENSG00000204397, Control vs. TGFβ",B (B = <−1.5 to −2.5)
same,Log2 TE MICA,"ENSG00000204520, 5 replicates",1.143
same,change in translational profile of MICA caused by TGFβ,"ENSG00000204520, Control vs. TGFβ",E (E = <1.5 to 2.5)
same,Log2 TE GNB2L1,"ENSG00000204628, 5 replicates",1.732
same,change in translational profile of GNB2L1 caused by TGFβ,"ENSG00000204628, Control vs. TGFβ",E (E = <1.5 to 2.5)
same,Log2 TE RPS29,"ENSG00000213741, 5 replicates",1.571
same,Log2 TE RPL17,"ENSG00000215472, 5 replicates",1.299
same,change in translational profile of RPL17 caused by TGFβ,"ENSG00000215472, Control vs. TGFβ",E (E = <1.5 to 2.5)
same,Log2 TE UBA52,"ENSG00000221983, 5 replicates",1.125
same,Log2 TE BTBD19,"ENSG00000222009, 5 replicates",1.524
same,Log2 TE RPL41,"ENSG00000229117, 5 replicates",1.474
same,change in translational profile of RPL41 caused by TGFβ,"ENSG00000229117, Control vs. TGFβ",E (E = <1.5 to 2.5)
same,Log2 TE RPS18,"ENSG00000231500, 5 replicates",2.003
same,Log2 TE C17orf108,"ENSG00000232859, 5 replicates",−1.329
same,Log2 TE RPS28,"ENSG00000233927, 5 replicates",1.937
same,Log2 TE ARPC1A,"ENSG00000241685, 5 replicates",1.288
same,change in translational profile of ARPC1A caused by TGFβ,"ENSG00000241685, Control vs. TGFβ",D (D = <1.0 to 1.5)
same,Log2 TE IFITM10,"ENSG00000244242, 5 replicates",−1.299
same,Log2 TE FMN1,"ENSG00000248905, 5 replicates",−1.906
same,Log2 TE CHCHD10,"ENSG00000250479, 5 replicates",2.519
same,change in translational profile of CHCHD10 caused by TGFβ,"ENSG00000250479, Control vs. TGFβ",F (F = >2.5)
same,Log2 TE SEPP1,"ENSG00000250722, 5 replicates",−1.035
same,Log2 TE EEF1G,"ENSG00000254772, 5 replicates",1.551
same,change in translational profile of EEF1G caused by TGFβ,"ENSG00000254772, Control vs. TGFβ",E (E = <1.5 to 2.5)
same,Log2 TE TEN1,"ENSG00000257949, 5 replicates",1.361
